Source: ChEMBL document CHEMBL5126510, “UCH-L3 structure and function: Insights about a promising drug target” (Eur J Med Chem, 2022)
Blank lines part the entries; values can stand above or below the compound they belong to.

Key:
[1] = molecular target: T1, Ubiquitin carboxyl-terminal hydrolase isozyme L3 (Homo sapiens, UniProt P15374); assay: Inhibition of UCHL3 (unknown origin) using ubiquitin-AMC as substrate by fluorescence assay
T1 sequence (P15374 whole entry): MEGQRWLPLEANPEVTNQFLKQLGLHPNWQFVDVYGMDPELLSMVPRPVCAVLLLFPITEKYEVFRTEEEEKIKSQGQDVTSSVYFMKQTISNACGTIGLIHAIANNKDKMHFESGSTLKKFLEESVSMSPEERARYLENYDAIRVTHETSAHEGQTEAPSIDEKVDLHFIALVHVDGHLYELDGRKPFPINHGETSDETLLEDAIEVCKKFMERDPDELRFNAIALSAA

[2] = molecular target: T1, Ubiquitin carboxyl-terminal hydrolase isozyme L3; assay: Inhibition of UCHL3 (unknown origin) incubated for 20 mins by fluorescence assay
[3] = molecular target: T1, Ubiquitin carboxyl-terminal hydrolase isozyme L3; assay: Inhibition of UCHL3 (unknown origin) using Ub-AMC as substrate preincubated for 30 mins followed by substrate addition by fluorescence assay
[4] = molecular target: T1, Ubiquitin carboxyl-terminal hydrolase isozyme L3; assay: Inhibition of UCHL3 (unknown origin) assessed as reduction in RAD51 deubiquitination incubated for 4 hrs
[5] = molecular target: T2, Ubiquitin carboxyl-terminal hydrolase isozyme L1 (Homo sapiens, UniProt P09936); assay: Inhibition of UCHL1 (unknown origin) using Ub-Rho as substrate preincubated for 30 mins followed by substrate addition
T2 sequence (P09936 whole entry): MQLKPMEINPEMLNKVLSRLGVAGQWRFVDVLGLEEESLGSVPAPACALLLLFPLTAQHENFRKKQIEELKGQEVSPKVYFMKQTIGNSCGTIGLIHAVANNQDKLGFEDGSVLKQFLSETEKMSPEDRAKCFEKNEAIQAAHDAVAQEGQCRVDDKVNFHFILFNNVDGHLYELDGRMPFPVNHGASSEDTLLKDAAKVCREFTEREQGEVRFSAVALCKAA

[6] = molecular target: T3, Ubiquitin carboxyl-terminal hydrolase isozyme L3 (Homo sapiens) (UniProt P15374); assay: Inhibition of UCHL3 (unknown origin) using Ub-AMC as substrate at 0.1 uM preincubated for 60 mins followed by substrate addition by fluorescence assay relative to control
T3 sequence (whole entry): T1 sequence (P15374 whole entry)

[7] = molecular target: T1, Ubiquitin carboxyl-terminal hydrolase isozyme L3; assay: Inhibition of UCHL3 (unknown origin)
[8] = molecular target: T2, Ubiquitin carboxyl-terminal hydrolase isozyme L1; assay: Inhibition of UCHL1 (unknown origin) using Ub-Rho-morpholine as substrate preincubated for 30 mins followed by substrate addition by fluorescence based assay
[9] = molecular target: T1, Ubiquitin carboxyl-terminal hydrolase isozyme L3; assay: Inhibition of recombinant human UCHL3 expressed in baculovirus infected Sf9 cells using ubiquitin-AMC as substrate preincubated for 30 mins followed by substrate addition by fluorescence spectrophotometric assay

IC50 [3]: 10 µM
Compound: CCCCC[C@H](O)/C=C/[C@H]1C(=O)C=C[C@@H]1C/C=C\CCCC(=O)O

IC50 [4]: 0.05 µM
Compound: CCCCCCCCCCCCCCCCCCOP(=O)([O-])OC1CC[N+](C)(C)CC1 [PERIFOSINE]

IC50 [5]: 6.4 µM
Compound: C#CCCn1cc(-c2cccc3c2ccn3C(=O)C2CCCN2C#N)c(C(F)(F)F)n1 (stereo not given)

IC50 [9]: 47 µM
Compound: CCCCc1ccc(-c2nnc(C)n2-c2ccc(C(C)C)cc2)cc1

Continued, compound first:

Compound: O=C1c2ccccc2C(=O)c2oc(-c3ccc(F)cc3)nc21
IC50 [1]: 2.16 µM

Compound: COC(=O)c1cc(-c2ccc(OC)c(OC)c2O)c(N)c(-c2ccc3c(n2)C(=O)C(N)=C(OC)C3=O)n1
IC50 [2]: 5 µM

Compound: O=C1C(Cc2ccc([N+](=O)[O-])cc2)CNCC1Cc1ccc([N+](=O)[O-])cc1 (stereo not given)
inhibition [6]: 60%

Compound: CC(=O)O/N=C1/C(=O)N(Cc2cc(Cl)ccc2Cl)c2ccc(Cl)cc21
IC50 [7]: 25 µM

Compound: N#CN1CCCC1C(=O)n1ccc2c(-c3cn[nH]c3C(F)(F)F)cccc21 (stereo not given)
IC50 [5]: 0.67 µM

Compound: N#CN1CCC(C(=O)Nc2ncc(N3CCOCC3)s2)C1 (stereo not given)
IC50 [8]: 0.23 µM
